Compound in one assay: COc1cccc2c1C(=O)c1c(O)c3c(c(O)c1C2=O)C[C@@](O)(C(=O)CO)C[C@@H]3O[C@H]1C[C@H](N)[C@H](O)[C@H](C)O1 [DOXORUBICIN]
Kind of assay: surviving fraction relative to DMSO-only wells; higher = less growth inhibition. The settings on record: exposure time: 5 days. In short, it runs like this:
(§1)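 After seeding at 250–500 cells per well in 384-well plates and a 24-hour wait, log-phase tumour cell lines were exposed without interruption for five days to inhibitors at 0.5, 1, 5, 10, 50, 100, 500 and 1000 nM. CellTiter-Glo luminescence was recorded after 10 minutes at room temperature. Viability is reported as surviving fraction, the luminescence normalised to the median of DMSO-only wells.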

Compound in the next assay: CS(=O)(=O)c1ccc(C(=O)Nc2ccc(Cl)c(-c3ccccn3)c2)c(Cl)c1 [VISMODEGIB]
The description is as above. To be noted: exposure time: 5 days. In short, it runs like this: as §1

± gives the standard deviation of the averaged measurements.

Consider G292 BONE, for which the surviving fraction in the assay with DOXORUBICIN (0.5 nM) worked out at 1.03 ± 0.065; with DOXORUBICIN (1 nM), 1 ± 0.037; with DOXORUBICIN (5 nM), 0.816 ± 0.052; with DOXORUBICIN (10 nM), 0.601 ± 0.059; with DOXORUBICIN (50 nM), 0.388 ± 0.031; with DOXORUBICIN (100 nM), 0.338 ± 0.0043. Besides, the surviving fraction came out at 0.108 ± 0.006 in the assay with DOXORUBICIN (500 nM); 0.0887 ± 0.0033 in the assay with DOXORUBICIN (1000 nM); 0.963 ± 0.032 with VISMODEGIB (0.5 nM); 0.989 ± 0.018 with VISMODEGIB (1 nM); 1.01 ± 0.057 with VISMODEGIB (5 nM); 0.96 ± 0.016 with VISMODEGIB (10 nM). Further, the surviving fraction with VISMODEGIB (50 nM) was determined as 0.959 ± 0.049; in the assay with VISMODEGIB (100 nM) it was 0.975 ± 0.019; with VISMODEGIB (500 nM), 0.927 ± 0.061; with VISMODEGIB (1000 nM) it was 0.932 ± 0.014.
Turning to HCC38 BREAST, the surviving fraction is 1.23 ± 0.28 with DOXORUBICIN (0.5 nM); 1.19 ± 0.18 in the assay with DOXORUBICIN (1 nM); 1.1 ± 0.23 with DOXORUBICIN (5 nM); 0.759 ± 0.14 in the assay with DOXORUBICIN (10 nM); 0.301 ± 0.034 in the assay with DOXORUBICIN (50 nM); 0.0897 ± 0.0085 with DOXORUBICIN (100 nM). The surviving fraction with DOXORUBICIN (500 nM) amounted to 0.0433 ± 0.0025; with DOXORUBICIN (1000 nM), 0.044 ± 0.0079; with VISMODEGIB (0.5 nM) it was 0.743 ± 0.17; with VISMODEGIB (1 nM), 0.928 ± 0.2; with VISMODEGIB (5 nM), 0.895 ± 0.31; with VISMODEGIB (10 nM) it was 1.12 ± 0.38. For the same test system, the surviving fraction with VISMODEGIB (50 nM) is 0.668 ± 0.12; with VISMODEGIB (100 nM) it was 0.677 ± 0.24; in the assay with VISMODEGIB (500 nM) it was 0.743 ± 0.24; with VISMODEGIB (1000 nM), 0.609 ± 0.11.
Turning to HCC70 BREAST, the surviving fraction amounted to 0.966 ± 0.06 in the assay with DOXORUBICIN (0.5 nM); 0.939 ± 0.021 with DOXORUBICIN (1 nM); 0.986 ± 0.15 with DOXORUBICIN (5 nM); 0.9 ± 0.13 with DOXORUBICIN (10 nM); 0.33 ± 0.013 with DOXORUBICIN (50 nM); 0.489 ± 0.045 in the assay with DOXORUBICIN (100 nM). For the same test system, the surviving fraction with DOXORUBICIN (500 nM) was determined as 0.15 ± 0.022; with DOXORUBICIN (1000 nM), 0.0553 ± 0.017; in the assay with VISMODEGIB (0.5 nM), 0.977 ± 0.041; in the assay with VISMODEGIB (1 nM), 0.964 ± 0.067; with VISMODEGIB (5 nM) it was 1.14 ± 0.055; in the assay with VISMODEGIB (10 nM), 1.11 ± 0.012. Besides, the surviving fraction was determined as 1.11 ± 0.084 with VISMODEGIB (50 nM), 1.12 ± 0.048 in the assay with VISMODEGIB (100 nM), 1.04 ± 0.037 with VISMODEGIB (500 nM) and 1.1 ± 0.026 in the assay with VISMODEGIB (1000 nM).
Consider HMLE3 BREAST, for which the surviving fraction turned out to be 0.941 ± 0.088 with DOXORUBICIN (0.5 nM); 1.04 ± 0.046 with DOXORUBICIN (1 nM); 0.744 ± 0.081 in the assay with DOXORUBICIN (5 nM); 0.405 ± 0.0065 in the assay with DOXORUBICIN (10 nM); 0.231 ± 0.022 with DOXORUBICIN (50 nM); 0.069 ± 0.018 with DOXORUBICIN (100 nM). In addition, the surviving fraction came to 0.02 ± 0.001 in the assay with DOXORUBICIN (500 nM); 0.0223 ± 0.00058 with DOXORUBICIN (1000 nM); 0.911 ± 0.11 with VISMODEGIB (0.5 nM); 0.929 ± 0.037 with VISMODEGIB (1 nM); 1 ± 0.03 in the assay with VISMODEGIB (5 nM); 0.949 ± 0.013 with VISMODEGIB (10 nM). The surviving fraction was 0.882 ± 0.096 in the assay with VISMODEGIB (50 nM), 0.969 ± 0.038 with VISMODEGIB (100 nM), 0.882 ± 0.15 with VISMODEGIB (500 nM) and 0.893 ± 0.11 with VISMODEGIB (1000 nM).
On to HMT3552 BREAST, for which the surviving fraction in the assay with DOXORUBICIN (0.5 nM) turned out to be 1.09; in the assay with DOXORUBICIN (1 nM), 0.911; in the assay with DOXORUBICIN (5 nM) it was 0.949; in the assay with DOXORUBICIN (10 nM), 0.817; with DOXORUBICIN (50 nM), 0.154; in the assay with DOXORUBICIN (100 nM), 0.167. Moreover, the surviving fraction with DOXORUBICIN (500 nM) came out at 0.099; with DOXORUBICIN (1000 nM), 0.027; with VISMODEGIB (0.5 nM) it was 1.07; with VISMODEGIB (1 nM), 1.02; in the assay with VISMODEGIB (5 nM) it was 1.05; in the assay with VISMODEGIB (10 nM), 1.06. The surviving fraction in the assay with VISMODEGIB (50 nM) was 0.804; with VISMODEGIB (100 nM), 1.16; with VISMODEGIB (500 nM), 0.925; in the assay with VISMODEGIB (1000 nM), 0.937.
Consider HS57T BREAST, for which the surviving fraction with DOXORUBICIN (0.5 nM) turned out to be 0.98 ± 0.066; in the assay with DOXORUBICIN (1 nM), 0.906 ± 0.1; in the assay with DOXORUBICIN (5 nM), 0.478 ± 0.09; with DOXORUBICIN (10 nM), 0.318 ± 0.015; with DOXORUBICIN (50 nM), 0.353 ± 0.045; in the assay with DOXORUBICIN (100 nM), 0.124 ± 0.015. Further, the surviving fraction with DOXORUBICIN (500 nM) stood at 0.0277 ± 0.0011; with DOXORUBICIN (1000 nM), 0.0273 ± 0.0011; with VISMODEGIB (0.5 nM) it was 0.986 ± 0.066; with VISMODEGIB (1 nM), 0.987 ± 0.04; with VISMODEGIB (5 nM), 1.01 ± 0.062; in the assay with VISMODEGIB (10 nM), 1.04 ± 0.055. The surviving fraction with VISMODEGIB (50 nM) came out at 1.04 ± 0.028; with VISMODEGIB (100 nM) it was 0.959 ± 0.038; with VISMODEGIB (500 nM), 0.991 ± 0.037; in the assay with VISMODEGIB (1000 nM) it was 0.978 ± 0.021.
As to HS578T BREAST, the surviving fraction stood at 0.922 ± 0.097 with DOXORUBICIN (0.5 nM); 0.958 ± 0.092 in the assay with DOXORUBICIN (1 nM); 0.838 ± 0.1 with DOXORUBICIN (5 nM); 0.693 ± 0.013 with DOXORUBICIN (10 nM); 0.483 ± 0.046 with DOXORUBICIN (50 nM); 0.489 ± 0.066 in the assay with DOXORUBICIN (100 nM). The surviving fraction with DOXORUBICIN (500 nM) was 0.094 ± 0.02; with DOXORUBICIN (1000 nM) it was 0.037 ± 0.0079; in the assay with VISMODEGIB (0.5 nM), 0.936 ± 0.14; with VISMODEGIB (1 nM) it was 0.934 ± 0.077; in the assay with VISMODEGIB (5 nM) it was 1.05 ± 0.062; with VISMODEGIB (10 nM), 0.964 ± 0.069. The surviving fraction with VISMODEGIB (50 nM) worked out at 0.871 ± 0.11; in the assay with VISMODEGIB (100 nM), 0.881 ± 0.051; in the assay with VISMODEGIB (500 nM), 0.913 ± 0.15; with VISMODEGIB (1000 nM) it was 0.983 ± 0.15.

The values are drawn from the supplement of paper PMC6045584.
